Patent US20230203096A1, “EPHA4 TARGETING COMPOUNDS AND METHODS OF USE THEREOF” (priority 2020, published 2023)

Assays:
[1] = tested on: mouse motor neurons co-cultured with iAstrocytes derived from sALS patients; test: Co-culture of sALS patient derived iAstrocytes and motor neurons (motor neuron survival); assay type: cell-based; settings: 100 μM
Source text: EphA4 has been directly implicated in the progression of ALS in mice models and in human genetic studies. While the mechanisms for onset and progression of ALS remain largely undetermined, astrocytes have been implicated as significant contributors to motor neuron death in both in familial ALS (fALS), that is driven by inactivating mutations within the superoxide dismutase 1 (SOD1) gene and that account for less than 2% of all ALS cases, (Di Giorgio et al., Nat Neurosci, 10 (5): 608-614, (2007); Nagai et al., Nat Neurosci, 10 (5): 615-622, (2007); Yamanaka et al., Nat Neurosci, 11 (3): 251-253, (2008)) and the more common sporadic form of ALS (sALS). […] Recently, it was shown that astrocytes derived from both patient groups are similarly toxic to motor neurons (Haidet-Phillips et al., Nat Biotechnol, 29 (9): 824-828, (2011)).
Induced Astrocytes were generated by seeding a low quantity of NPCs into astrocyte medium (DMEM media containing 10% FBS and 0.2% N2) for five days. Following differentiation, iAstrocytes were lifted and seeded into a 96 well (10,000 cells per well).
Cells are sorted through a 100 micron tip with sheath pressure of 27. GFP+ motor neurons were seeded in a 96 well plate (10,000 cells per well). Co-cultures were imaged with InCell for up to three days. Motor neurons with neurite outgrowth of greater than 50 um were counted as alive.

[2] = molecular target: T1, ^13C^ε-Met-labeled EphA4-LBD (Homo sapiens, UniProt P54764, C204A); test: 2D [13C,1H] HSQC NMR chemical shift perturbation of Met resonances; assay type: binding; settings: test ligands at 40 μM, EphA4-LDB at 20 μM; Table 8
T1 construct: His tag (N); made in house; host or cells: E. coli Rosetta-Gami B(DE3), pET15b
T1 sequence (P54764 29-209 C204A): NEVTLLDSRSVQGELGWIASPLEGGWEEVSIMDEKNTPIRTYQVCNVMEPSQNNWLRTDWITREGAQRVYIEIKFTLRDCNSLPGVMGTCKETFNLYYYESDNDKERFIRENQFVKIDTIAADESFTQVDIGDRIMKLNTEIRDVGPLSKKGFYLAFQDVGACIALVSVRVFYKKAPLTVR
Protocol: Peptides were synthesized by using standard solid-phase synthesis protocol, using the BAL resin as anchoring for the C-terminal amines. Isothermal Titration Calorimetry (ITC) measurements were performed in a reverse fashion by titrating the protein into the ligand solution. Solution nuclear magnetic resonance (NMR) experiments were conducted on a 700 MHz Bruker Avance spectrometer equipped with a TCI cryoprobe. […]
2D [^13C,^1H] correlation NMR spectra measured with such protein targets, collected in absence or presence of test ligands can be used to monitor ligand binding and make, albeit qualitative, determinations on possible conformational changes induced by test ligands on the protein target. […] In targeting EphA4, an important aspect regarding the activity of its ligands is whether these agents could be predicted to work as antagonists or agonists.
NMR spectra were acquired on Bruker Avance III 700 MHz spectrometer equipped with a TCI cryoprobe. All NMR data were processed and analyzed using TOPSPIN 3.6.1 (Bruker, Billerica, Mass., USA).
Chemical shift changes (A) in the 2D [^13C, ^1H] spectra were calculated as weight average perturbations observed in the ^1H and ^13C dimensions using the following Equation: […]

EphA4 = settings: reported previously; cited from earlier work
[3] = tested on: SOD1(G93A) transgenic mice; settings: SOD1(G93A) models, literature; cited from earlier work

COc1ccc2[nH]cc(CCNC(=O)[C@H](Cc3ccncc3)NC(=O)[C@H](Cc3ccc(Cl)cc3)NC(=O)[C@H](Cc3c[nH]c4ccc(O)cc34)NC(=O)CCCN)c2c1 [Compound 123C4, reference compound]
protection of motor neurons from sALS astrocytes-induced death [1]: to a lesser extent, 123C4 (at a higher concentration) were able to protect mouse motor neurons
Δδ Met 60 [2]: + (0< + <0.1 ppm)
Δδ Met 115 [2]: + (0< + <0.1 ppm)
Δδ Met 164 [2]: ++ (0.1 ppm < ++ <0.2 ppm)
agonistic activity for EphA4 in primary cortical neurons (EphA4): induced receptor phosphorylation and growth cone collapse
disease onset / survival [3]: significantly prolonged survival
